Assay results as given in patent publication US20180326022A1, “COMPOSITIONS AND METHODS FOR IMPROVING HEART FUNCTION AND TREATING HEART FAILURE” (The Trustees of the University of Pennsylvania, priority 2017, published 2018).

Tests used:
desmin KO myocytes = assay: AFM viscoelasticity, desmin KO mouse myocytes; assay type: cell-based; details: KO + PTL
Method: (§1) Animal care and procedures were approved and performed in accordance with the standards set forth by the University of Pennsylvania Institutional Animal Care and Use Committee and the Guide for the Care and Use of Laboratory Animals published by the US National Institutes of Health. Desmin knockout mice and WT littermates were provided by Dr. Robert Bloch and have been previously characterized (36). Experiments were performed blinded to genotype.
(§2) Viral constructs were permitted to express for 24-72 hours with Moi=100-200. Parthenolide (Fisher Scientific NC9013142) treatment was carried out at room temperature for 2 hours at 10 μM. All experiments were performed within 48 hours of isolation, except those involving shTTL, which were allowed 72 hours to improve knockdown efficiency.
(§3) The elastic modulus of isolated cardiomyocytes was measured using AFM indentation. Optical microscopy and AFM were performed simultaneously using an MFP3D AFM (Asylum Research) combined with an inverted Nikon TE-2000U microscope equipped with a Nikon 100×, 1.49 NA objective. TTL expression was determined by dsRED fluorescence captured via 532 nm laser excitation (CrystaLaser) and a CCD camera (Cascade-512B, Photometrics) at 900 ms exposure time controlled through the NIS Elements software package. […] Modulus characterization of myocytes was performed using 4.26 μm radius (R below) SiO2 microparticle epoxied to SiN cantilevers with nominal spring constant 0.03 N/m (CP-PNPS-SiO-A, Nano And More, USA). Cantilever spring constants were manually calibrated in air by thermal vibrations using the MFP3D prior to each experiment using a clean glass substrate. Inverse optical lever sensitivity was determined in myocyte buffer solution prior to each round of measurements.
(§4) E is the elastic modulus, υ, is the cell Poisson ratio and δ is the indentation depth. Transverse compression of the cardiomyocyte is performed over a range of indentation speeds and the indentation speed is divided by the total indentation depth to obtain an effective indentation rate, f. […]

[1] = test system: microtubules in contracting cardiomyocytes; assay: Microtubule buckling in contracting cardiomyocytes (Airyscan imaging); assay type: cell-based, rat
Method: Confocal imaging was carried out on a Zeiss 780 laser scanning confocal scan head operating on an Axiovert Z1 inverted microscope equipped with a 40× oil 1.4 NA objective. High-speed super resolution imaging was carried out on a Zeiss 880 Airyscan confocal with a 63×1.4 oil NA objective (FIG. 8A-FIG. 8E, Airyscan application note can be found at http://www.zeiss.com/microscopy/enus/products/confocal-microscopes/Ism-880-with-airyscan-.html#downloads). Image analysis was performed using ZEN Black software for Airyscan processing, which involves signal integration from the 32 separate sub-resolution detectors in the Airyscan detector and subsequent deconvolution of this integrated signal (FIG. 8A-FIG. 8E). Additional signal processing was performed in Image J (NIH). For calculating the microtubule fraction of cell area (FIG. 2B-FIG. 2C), image analysis was performed blinded to the experimental treatment groups. A 1.5 μm max intensity projection was produced from 3 0.5 μm confocal z-sections. […] From the resulting binary images (FIG. 9B), the microtubule positive fraction of the total cell area was calculated for alpha and detyrosinated tubulin (FIG. 2C).
Analysis of buckling parameters was performed on 1-8 microtubules per image series. Analysis was done blind to the experimental condition and, where possible, followed a microtubule selected from resting frames to avoid biased selection of microtubules that buckled during contraction. A centerline was drawn along the axis of the microtubule and the maximum distance to the edge of the microtubule was recorded as the amplitude (FIG. 1G, red). MTs were further analyzed by recording the distance between 2 consecutive inflection points (FIG. 1G, yellow) as half the wavelength. This short metric was selected instead of full wavelength to maximize inclusion of microtubules for which labeling or z-displacement prevented inclusion of a full cycle in the image.

WT myocytes = assay: AFM viscoelasticity, WT mouse myocytes; assay type: cell-based; details: WT + PTL
Method: as §1, §2, §3, §4

## C=C1C(=O)O[C@H]2[C@H]1CC/C(C)=C/CC[C@@]1(C)O[C@@H]21 [PTL, 4,5-epoxygermacra-1(10),11(13)-dien-12,6-olactone]
Desmin KO myocytes
  E1 (Pa): 429.76 Pa
  E2 (Pa): 512.2 Pa
  η (Pa*s): 27.4 Pa*s
[1]; amplitude change on same followed MT between rest and contraction
  Amp (Δ): 0.078
[1]; buckling amplitude, contracted cardiomyocytes
  Amp Contract: 0.212
[1]; buckling amplitude, resting cardiomyocytes
  Amp Rest: 0.134
[1]; number of buckled microtubules, N microtubules 24 (Parth) and 62 (TTL)
  N Buckled: 9
[1]; vs control myocytes
  occurrence of buckling: fell significantly
WT myocytes
  E1 (Pa): 533.11 Pa
  E2 (Pa): 627.4 Pa
  η (Pa*s): 32.9 Pa*s
